Test results reported in patent publication US9359341B2, “Aldehyde derivative of substitute oxazolidinones” (WANBURY LTD., priority 2012, dated 2016).

Assay: In vitro stability in human plasma
Type: in vitro ADME
Conditions: conversion to rivaroxaban seen from zero min
Description: The final concentration of the test compound in the assay is 5 micromolar. […] C. The 100 microliters of aliquot at time point was removed and diluted with ice cold acetonitrile containing IS (200.mu·L) to stop the reactions. Samples are centrifuged at 10,000 RPM for 5 minutes to precipitate proteins. Supernatants are transferred to micro centrifuge tubes and stored at −20° C. for analysis of LC/MS/MS. The percent parent remaining of the test substance is calculated as ratio of peak area at each time point to peak area ratio at zero min, multiplied by 100.
API 4000, ESI Agilent 1100 column: Gemini Nx 100 mm×4.6 mm 5.1; column temperature: 30° C.; eluent A: 0.1% formic acid in water, eluent B: acetonitrile; gradient: 0-2.5 min 95% A, 5% B; 2.5-2.6 min 5% A, 95% B; 2.6-4.2 min 95% A, 5% B; flow rate: 0.8 ml/min; ESI. Q1:464.098, Q3:144.255

## O=CN(C[C@H]1CN(c2ccc(N3CCOCC3=O)cc2)C(=O)O1)C(=O)c1ccc(Cl)s1 [Compound formula B, 5-chloro-N-formyl-N-({(5S)-2-oxo-3-[4-(3-oxomorpholin-4-yl)phenyl]-1,3-oxazolidin-5-yl}methyl)thiophene-2-carboxamide]
  Conversion: amount of test product detected: min. Neglible
